Experimental data as given in ChEMBL document CHEMBL1201862, “PubChem BioAssay data set” (2004).
Active and inactive are the calls of the source.

Tests used:
H9c2 = assay: cells; type: functional, cell-based; settings: Rattus norvegicus, H9c2, Myocardium;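 note: confirmatory concentration-response retest of ultra-high-throughput screening hits for modulation of myocardial damage; cell death induced by hydrogen peroxide oxidative stress; compound pretreatment for 60 min then peroxide exposure for 2 h; potency is for protecting the cells against peroxide damage rather than for killing them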
Melanocortin receptor 4 = Melanocortin receptor 4 (Homo sapiens, UniProt P32245); type: functional, cell-based;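 note: Cell-based assay with luminescence read-out, confirmatory dose-response testing for agonist activity of biased ligands at MC4R; human U2OS cells with tagged receptor and beta-arrestin; potency of agonists that increase receptor coupling to beta-arrestin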
[1] = molecular target: Low molecular weight phosphotyrosine protein phosphatase (Homo sapiens, UniProt P24666); type: functional; settings: read-out: IC50_Mean;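 note: Dose-response confirmation assay measuring inhibition of LMPTP enzyme activity by fluorescence intensity read-out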
[2] = molecular target: T1, Polyadenylate-binding protein 1 (Homo sapiens, UniProt P11940); assay: PABP1 MLLE–PAM2 interaction inhibitors, dose response, miRNA deadenylation inhibitor project, biochemical, fluorescence polarization, Cy5-PAM2 peptide, secondary (AID 602260); type: functional; settings: read-out: IC50_Mean
[3] = molecular target: T1, Polyadenylate-binding protein 1; assay: PABP1 MLLE–PAM2 binding inhibitor potency, dose response, biochemical, fluorescence polarization, FITC-PAM2 peptide (AID 602259); type: functional; settings: read-out: IC50_Mean
Lethal factor = Lethal factor (Bacillus anthracis, UniProt P15917); assay: High-throughput multiplex microsphere dose response for inhibitors of toxin protease, specifically Lethal Factor protease, compounds from Cherry Pick 02.; type: functional; settings: read-out: EC50_MICROM
Bcl-2-related protein A1 = molecular target: T2, Bcl-2-related protein A1 (Mus musculus, UniProt Q07440); type: functional;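 note: confirmatory dose–response counterscreen on Bfl-1, used to check hits from a UBC13 polyubiquitin inhibitor campaign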
T2 sequence (Q07440 whole entry): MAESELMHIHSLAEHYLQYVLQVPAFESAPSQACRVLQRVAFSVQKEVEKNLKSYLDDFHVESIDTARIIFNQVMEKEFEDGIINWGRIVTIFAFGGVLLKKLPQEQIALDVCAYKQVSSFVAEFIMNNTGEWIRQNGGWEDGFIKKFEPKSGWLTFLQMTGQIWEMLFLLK

[4] = molecular target: T3, Ubiquitin-conjugating enzyme E2 N (Homo sapiens, UniProt P61088); type: functional
T3 sequence (P61088 whole entry): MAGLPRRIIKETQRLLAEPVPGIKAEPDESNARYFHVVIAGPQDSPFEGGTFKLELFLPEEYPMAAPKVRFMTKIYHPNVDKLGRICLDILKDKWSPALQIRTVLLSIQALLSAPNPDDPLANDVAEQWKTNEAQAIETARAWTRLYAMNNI

[5] = molecular target: T3, Ubiquitin-conjugating enzyme E2 N; type: functional; remark: listed apart in the source
Insulin-degrading enzyme [6] = molecular target: T4, Insulin-degrading enzyme (Homo sapiens, UniProt P14735); assay: activators of recombinant IDE enzyme, dose response, counter-screen for IDE activator project, biochemical, fluorescence polarization (AID 588681)
T4 sequence (P14735 whole entry): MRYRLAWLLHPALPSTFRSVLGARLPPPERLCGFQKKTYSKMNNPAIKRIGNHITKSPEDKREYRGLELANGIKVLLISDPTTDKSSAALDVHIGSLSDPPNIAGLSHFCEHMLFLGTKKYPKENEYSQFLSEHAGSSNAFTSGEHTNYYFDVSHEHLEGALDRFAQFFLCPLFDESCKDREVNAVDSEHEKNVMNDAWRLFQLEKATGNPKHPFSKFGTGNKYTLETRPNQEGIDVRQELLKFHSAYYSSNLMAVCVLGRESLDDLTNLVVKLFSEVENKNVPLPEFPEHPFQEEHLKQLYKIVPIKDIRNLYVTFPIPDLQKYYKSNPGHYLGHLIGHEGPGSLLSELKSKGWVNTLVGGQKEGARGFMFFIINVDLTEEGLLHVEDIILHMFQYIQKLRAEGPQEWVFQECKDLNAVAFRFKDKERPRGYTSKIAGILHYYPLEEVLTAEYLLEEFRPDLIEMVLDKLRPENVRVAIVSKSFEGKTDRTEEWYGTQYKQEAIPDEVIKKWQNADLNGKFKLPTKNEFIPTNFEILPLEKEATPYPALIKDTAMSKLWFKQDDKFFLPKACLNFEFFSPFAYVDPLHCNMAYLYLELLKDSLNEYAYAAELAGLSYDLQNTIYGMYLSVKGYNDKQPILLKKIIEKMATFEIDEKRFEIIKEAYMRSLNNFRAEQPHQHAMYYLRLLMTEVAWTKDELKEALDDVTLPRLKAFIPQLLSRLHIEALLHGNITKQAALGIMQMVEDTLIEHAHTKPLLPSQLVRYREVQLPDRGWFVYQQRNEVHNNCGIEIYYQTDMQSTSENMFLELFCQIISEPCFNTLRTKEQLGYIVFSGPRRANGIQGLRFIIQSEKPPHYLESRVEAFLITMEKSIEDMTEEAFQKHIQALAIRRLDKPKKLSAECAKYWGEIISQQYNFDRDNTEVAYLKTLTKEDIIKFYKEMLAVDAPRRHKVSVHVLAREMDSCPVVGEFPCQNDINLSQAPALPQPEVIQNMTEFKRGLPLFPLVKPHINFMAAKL

[7] = molecular target: T5, Apoptotic protease-activating factor 1 (Homo sapiens, UniProt O14727); type: functional
T5 sequence (O14727 whole entry): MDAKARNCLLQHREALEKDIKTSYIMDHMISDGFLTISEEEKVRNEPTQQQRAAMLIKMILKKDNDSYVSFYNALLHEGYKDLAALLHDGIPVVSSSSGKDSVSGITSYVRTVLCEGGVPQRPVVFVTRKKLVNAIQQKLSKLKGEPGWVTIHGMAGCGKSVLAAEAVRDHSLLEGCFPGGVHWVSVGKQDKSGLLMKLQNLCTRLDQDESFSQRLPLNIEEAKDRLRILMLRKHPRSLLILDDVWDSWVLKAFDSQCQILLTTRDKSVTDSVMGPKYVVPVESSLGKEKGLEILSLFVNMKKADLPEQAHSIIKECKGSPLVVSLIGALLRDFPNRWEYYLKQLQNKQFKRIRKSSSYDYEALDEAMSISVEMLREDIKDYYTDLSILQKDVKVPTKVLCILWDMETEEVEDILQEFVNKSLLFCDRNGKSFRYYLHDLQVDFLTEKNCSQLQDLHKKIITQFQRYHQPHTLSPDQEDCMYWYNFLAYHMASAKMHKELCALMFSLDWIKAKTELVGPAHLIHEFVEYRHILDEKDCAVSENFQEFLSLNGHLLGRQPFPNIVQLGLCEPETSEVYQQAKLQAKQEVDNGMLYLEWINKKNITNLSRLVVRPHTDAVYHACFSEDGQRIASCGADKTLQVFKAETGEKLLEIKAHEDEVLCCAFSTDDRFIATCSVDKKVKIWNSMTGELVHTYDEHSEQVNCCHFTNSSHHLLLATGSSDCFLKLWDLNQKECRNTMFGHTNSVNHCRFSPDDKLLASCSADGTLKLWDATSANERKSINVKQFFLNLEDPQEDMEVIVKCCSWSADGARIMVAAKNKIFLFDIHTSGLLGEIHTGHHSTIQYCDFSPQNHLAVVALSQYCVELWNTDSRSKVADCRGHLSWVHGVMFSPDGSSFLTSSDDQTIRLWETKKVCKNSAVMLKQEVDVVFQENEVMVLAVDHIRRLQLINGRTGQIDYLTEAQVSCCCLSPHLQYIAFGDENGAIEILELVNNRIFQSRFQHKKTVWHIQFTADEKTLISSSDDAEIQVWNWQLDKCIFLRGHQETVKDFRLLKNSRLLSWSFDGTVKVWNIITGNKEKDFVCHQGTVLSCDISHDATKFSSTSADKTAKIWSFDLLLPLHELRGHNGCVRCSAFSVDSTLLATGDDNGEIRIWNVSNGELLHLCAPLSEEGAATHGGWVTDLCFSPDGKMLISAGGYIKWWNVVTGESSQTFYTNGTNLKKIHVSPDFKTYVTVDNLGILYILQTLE

Insulin-degrading enzyme [8] = molecular target: T4, Insulin-degrading enzyme; assay: activators of endogenous IDE in HEK cells, dose response, cell-based, fluorescence polarization (AID 588439); type: functional
HEK293 [9] = assay: HEK cell cytotoxicity by LDH release, dose response, cytotoxicity control for IDE activator project, fluorescence, HEK cells (AID 588440); type: functional, cell-based; settings: Homo sapiens;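 note: cytotoxicity by LDH release measuring loss of membrane integrity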
HEK293 [10] = assay: optical interference in Abeta FP readout, dose response, artefact control for IDE activator project, biochemical, fluorescence polarization (AID 588442); type: functional, cell-based; settings: Homo sapiens
[11] = molecular target: Mitochondrial peptide methionine sulfoxide reductase (Bos taurus, UniProt P54149); type: functional;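 note: absorbance read-out, biochemical high-throughput dose-response screen for MsrA inhibitors, confirmatory; recombinant bovine MsrA coupled to E. coli TrxB with NADPH and selenocystamine; potency is for inhibitors of MsrA activity on DMSO substrate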
[12] = inhibitors of firefly luciferase expression or activity, dose response, H4 neuroglioma cells, luminescence (AID 1990); type: functional, cell-based
[13] = system: Streptococcus sp. 'group A'; assay: growth inhibition of control SK(-) GAS strain, dose response, counter-screen for streptokinase expression inhibitor project, luminescence, kanamycin, BacTiterGlo, confirmation (AID 1900); type: functional, organism-based
[14] = Luminescence Cell-Based Dose Response HTS to Identify Inhibitors of 5'UTR Stem-Loop Driven Prion Protein mRNA Translation in H4 Neuroglioblastoma Cells. [Related pubchem assays: 1827 (Project Summary), 1813 (Primary HTS)]; type: functional
[15] = inhibitors of SNCA 5'UTR-driven reporter translation, confirmation, H4 neuroglioma cells, luminescence (AID 1988); type: functional, cell-based
Streptokinase A = molecular target: T6, Streptokinase A (Streptococcus pyogenes serotype M1, UniProt P10520); assay: S. pyogenes streptokinase expression inhibitors, potency, dose response, plasminogen activation absorbance, OD405 (AID 1914); type: functional, Streptococcus pyogenes M1 GAS;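 note: secreted streptokinase activity via plasminogen activation per viability signal from cell pellet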
T6 sequence (P10520 whole entry): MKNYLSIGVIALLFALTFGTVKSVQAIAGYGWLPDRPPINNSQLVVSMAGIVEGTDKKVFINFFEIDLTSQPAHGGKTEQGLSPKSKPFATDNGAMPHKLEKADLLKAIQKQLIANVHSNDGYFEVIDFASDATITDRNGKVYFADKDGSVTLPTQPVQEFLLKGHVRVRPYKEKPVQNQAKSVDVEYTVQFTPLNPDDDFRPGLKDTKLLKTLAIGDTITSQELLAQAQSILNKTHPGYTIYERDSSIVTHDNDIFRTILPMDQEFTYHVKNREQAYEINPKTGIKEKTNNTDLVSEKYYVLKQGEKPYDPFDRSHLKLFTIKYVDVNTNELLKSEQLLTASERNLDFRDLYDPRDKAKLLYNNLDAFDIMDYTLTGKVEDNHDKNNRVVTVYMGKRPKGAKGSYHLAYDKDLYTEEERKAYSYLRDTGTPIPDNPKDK

[16] = growth suppression of PTEN-null colon cells, dose response, cell-based, HCT116 PTEN knockout (AID 1047); type: functional;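 note: HCT116 colon tumor cells with PTEN knocked out; cells exposed to compound for 60 hours before readout; potency for loss of cell viability measured by luminescence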
[17] = growth suppression of beta-catenin-knockout colon cells, dose response, cell-based, HCT116, human colon tumor (AID 1045); type: functional;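 note: HCT116 colon tumor cells with beta catenin knocked out; cells exposed to compound for 60 hours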
Streptococcus = assay: Group A Streptococcus viability loss, dose response, counter-screen for streptokinase expression inhibitor project, luminescence, BacTiterGlo (AID 1915); type: functional, organism-based;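 note: potency for reduction of bacterial viability or growth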
[18] = molecular target: Neurotensin receptor type 1 (Homo sapiens, UniProt P30989); type: functional;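 note: Image-based confirmatory dose-response assay measuring agonist activity at NTR1; NTR1-expressing U2OS osteosarcoma cells imaged for beta-arrestin GFP spot formation; agonist potency where compounds increase beta-arrestin recruitment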
[19] = cytotoxicity in HEK-293T cells, dose response, cytotoxicity control for TCR NF-kB inhibitor project, luminescence, T-cell screen hits (AID 489026); type: functional, cell-based;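 note: cells exposed to compound about 14 hours before the viability readout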
INS1 = assay: beta cell apoptosis inhibitors, cytokine rescue, dose response, luminescence, retest (AID 449756); type: functional, cell-based; settings: Rattus norvegicus;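 note: cell death triggered by IL-1 beta plus TNF-alpha plus IFN-gamma mixture; protective hits raise ATP signal compared with cytokine alone wells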
[20] = inhibitors of intracellular T. cruzi replication, confirmation, NIH3T3 host cells, beta-gal luminescence (AID 2044); type: functional, cell-based;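 note: intracellular parasites grown in NIH/3T3 mouse fibroblasts as host cells; luminescent beta-galactosidase reporter signal from transgenic T. cruzi replicating inside host cells; inhibitors lower the luminescence signal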
[21] = cytotoxicity toward NIH3T3 fibroblasts, dose response, counter-screen, cell-based, ATP luminescence, mouse fibroblasts (AID 2010); type: functional;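 note: cells exposed to compound for about 90 hours before reading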
[22] = molecular target: Photoreceptor-specific nuclear receptor (Homo sapiens, UniProt Q9Y5X4); type: functional, cell-based;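 note: CHO-S cells with Gal4-NCOR and VP16-NR2E3 two-hybrid luciferase reporter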
Fatty acid synthase [23] = molecular target: T7, Fatty acid synthase (Homo sapiens, UniProt P49327); assay: FAS thioesterase domain inhibitors, dose response, biochemical, endpoint fluorescence intensity, uHTS hits (AID 624327); type: functional;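 note: fluorescence from hydrolysis of an O-methyl fluorescein acyl ester substrate by the enzyme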
Fatty acid synthase [24] = molecular target: T7, Fatty acid synthase; assay: FAS thioesterase domain inhibitors, dose response, biochemical, kinetic fluorescence intensity (AID 624326); type: functional;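 note: rate of fluorescence rise from hydrolysis of a fluorogenic O-methyl fluorescein ester substrate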

T1 sequence (P11940 whole entry): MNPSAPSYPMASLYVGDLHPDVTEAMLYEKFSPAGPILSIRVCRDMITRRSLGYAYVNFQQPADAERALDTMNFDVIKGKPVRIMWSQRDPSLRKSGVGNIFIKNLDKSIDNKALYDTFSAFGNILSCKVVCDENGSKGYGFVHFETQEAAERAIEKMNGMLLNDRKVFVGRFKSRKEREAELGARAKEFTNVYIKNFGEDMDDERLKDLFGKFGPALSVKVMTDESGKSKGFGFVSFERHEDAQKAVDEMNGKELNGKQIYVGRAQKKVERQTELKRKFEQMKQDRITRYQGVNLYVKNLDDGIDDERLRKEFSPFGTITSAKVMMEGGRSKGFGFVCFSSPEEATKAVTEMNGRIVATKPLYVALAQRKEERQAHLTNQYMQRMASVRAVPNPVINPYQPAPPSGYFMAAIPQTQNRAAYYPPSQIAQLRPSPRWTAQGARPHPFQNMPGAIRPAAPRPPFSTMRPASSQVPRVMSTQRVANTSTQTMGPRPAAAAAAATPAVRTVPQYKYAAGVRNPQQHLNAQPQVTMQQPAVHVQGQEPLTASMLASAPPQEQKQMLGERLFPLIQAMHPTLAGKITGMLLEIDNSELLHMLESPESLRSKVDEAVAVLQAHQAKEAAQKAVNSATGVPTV
T7 sequence (P49327 whole entry, the tested form may be a part): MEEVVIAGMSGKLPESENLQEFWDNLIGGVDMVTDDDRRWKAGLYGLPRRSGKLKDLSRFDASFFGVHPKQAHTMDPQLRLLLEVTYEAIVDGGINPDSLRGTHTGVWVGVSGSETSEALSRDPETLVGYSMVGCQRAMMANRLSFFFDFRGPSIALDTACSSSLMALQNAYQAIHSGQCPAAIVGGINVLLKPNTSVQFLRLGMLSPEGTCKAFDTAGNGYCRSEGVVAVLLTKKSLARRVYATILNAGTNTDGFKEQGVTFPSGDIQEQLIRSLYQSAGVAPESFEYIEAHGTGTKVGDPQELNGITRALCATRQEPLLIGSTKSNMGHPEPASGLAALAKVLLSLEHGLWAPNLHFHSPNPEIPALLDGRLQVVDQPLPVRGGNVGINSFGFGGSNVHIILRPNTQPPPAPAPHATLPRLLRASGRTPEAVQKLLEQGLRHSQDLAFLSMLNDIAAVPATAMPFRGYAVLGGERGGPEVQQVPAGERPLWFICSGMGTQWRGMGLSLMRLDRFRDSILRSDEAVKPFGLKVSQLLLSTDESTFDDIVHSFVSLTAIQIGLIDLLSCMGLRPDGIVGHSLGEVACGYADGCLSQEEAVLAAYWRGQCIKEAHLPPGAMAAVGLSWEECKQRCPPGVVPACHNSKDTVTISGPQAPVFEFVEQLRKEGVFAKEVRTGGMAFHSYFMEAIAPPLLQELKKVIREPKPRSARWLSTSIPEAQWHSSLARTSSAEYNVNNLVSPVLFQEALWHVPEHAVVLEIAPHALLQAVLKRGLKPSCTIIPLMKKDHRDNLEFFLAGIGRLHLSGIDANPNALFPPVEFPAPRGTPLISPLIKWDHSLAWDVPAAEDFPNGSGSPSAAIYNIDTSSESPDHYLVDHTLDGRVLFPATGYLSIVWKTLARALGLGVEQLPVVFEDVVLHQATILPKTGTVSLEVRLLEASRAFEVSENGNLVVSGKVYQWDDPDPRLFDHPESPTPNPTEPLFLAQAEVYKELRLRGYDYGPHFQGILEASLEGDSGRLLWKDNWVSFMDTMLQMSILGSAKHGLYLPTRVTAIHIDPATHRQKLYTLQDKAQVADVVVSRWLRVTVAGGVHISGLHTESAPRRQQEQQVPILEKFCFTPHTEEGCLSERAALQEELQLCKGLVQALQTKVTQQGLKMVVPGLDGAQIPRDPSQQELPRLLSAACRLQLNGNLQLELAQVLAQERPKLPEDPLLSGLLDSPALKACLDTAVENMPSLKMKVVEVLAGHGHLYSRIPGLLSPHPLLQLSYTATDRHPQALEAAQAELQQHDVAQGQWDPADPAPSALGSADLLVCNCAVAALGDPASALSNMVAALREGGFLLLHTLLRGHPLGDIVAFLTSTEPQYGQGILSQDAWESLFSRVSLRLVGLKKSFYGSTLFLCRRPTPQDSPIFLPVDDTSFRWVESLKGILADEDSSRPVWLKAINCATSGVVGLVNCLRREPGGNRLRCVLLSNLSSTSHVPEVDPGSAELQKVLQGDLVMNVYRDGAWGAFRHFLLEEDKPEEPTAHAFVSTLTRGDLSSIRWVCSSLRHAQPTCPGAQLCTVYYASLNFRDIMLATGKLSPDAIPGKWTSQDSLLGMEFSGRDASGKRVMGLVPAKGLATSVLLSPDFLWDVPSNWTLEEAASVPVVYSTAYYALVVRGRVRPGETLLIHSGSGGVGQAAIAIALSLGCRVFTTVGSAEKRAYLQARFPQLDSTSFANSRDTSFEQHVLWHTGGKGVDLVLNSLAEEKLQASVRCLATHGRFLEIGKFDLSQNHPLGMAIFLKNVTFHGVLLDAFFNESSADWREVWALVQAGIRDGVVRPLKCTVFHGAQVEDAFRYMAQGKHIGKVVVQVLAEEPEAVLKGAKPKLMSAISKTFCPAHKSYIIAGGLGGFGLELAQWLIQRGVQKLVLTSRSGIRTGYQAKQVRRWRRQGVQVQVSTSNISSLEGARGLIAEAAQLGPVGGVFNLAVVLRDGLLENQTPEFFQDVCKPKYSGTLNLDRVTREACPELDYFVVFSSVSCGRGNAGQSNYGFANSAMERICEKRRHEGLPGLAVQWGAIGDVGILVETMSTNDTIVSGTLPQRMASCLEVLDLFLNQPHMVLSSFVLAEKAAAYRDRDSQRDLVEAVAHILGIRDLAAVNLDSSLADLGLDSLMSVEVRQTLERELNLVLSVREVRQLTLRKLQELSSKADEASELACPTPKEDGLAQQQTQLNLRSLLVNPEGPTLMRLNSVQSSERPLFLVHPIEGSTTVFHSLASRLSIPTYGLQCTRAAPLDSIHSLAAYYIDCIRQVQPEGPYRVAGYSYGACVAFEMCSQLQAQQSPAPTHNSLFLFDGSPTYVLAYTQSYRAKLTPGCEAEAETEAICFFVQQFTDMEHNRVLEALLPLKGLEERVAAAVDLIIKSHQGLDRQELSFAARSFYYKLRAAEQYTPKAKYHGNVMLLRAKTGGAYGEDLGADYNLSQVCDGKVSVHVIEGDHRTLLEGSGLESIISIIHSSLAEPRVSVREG
Sequence of Low molecular weight phosphotyrosine protein phosphatase (P24666 whole entry): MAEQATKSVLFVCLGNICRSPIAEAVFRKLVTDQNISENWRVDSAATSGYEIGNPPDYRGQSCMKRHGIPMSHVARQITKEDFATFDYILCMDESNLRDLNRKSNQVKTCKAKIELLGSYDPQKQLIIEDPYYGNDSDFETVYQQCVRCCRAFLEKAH
Sequence of Melanocortin receptor 4 (P32245 whole entry): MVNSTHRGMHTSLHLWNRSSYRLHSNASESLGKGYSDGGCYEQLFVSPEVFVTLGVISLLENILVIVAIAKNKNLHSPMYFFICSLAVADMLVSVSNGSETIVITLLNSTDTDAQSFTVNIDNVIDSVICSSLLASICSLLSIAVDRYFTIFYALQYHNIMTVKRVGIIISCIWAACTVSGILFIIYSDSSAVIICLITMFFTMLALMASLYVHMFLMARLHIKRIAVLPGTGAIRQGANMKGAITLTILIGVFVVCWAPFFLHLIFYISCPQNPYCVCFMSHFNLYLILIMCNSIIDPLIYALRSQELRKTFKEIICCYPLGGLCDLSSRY
Sequence of Mitochondrial peptide methionine sulfoxide reductase (P54149 whole entry): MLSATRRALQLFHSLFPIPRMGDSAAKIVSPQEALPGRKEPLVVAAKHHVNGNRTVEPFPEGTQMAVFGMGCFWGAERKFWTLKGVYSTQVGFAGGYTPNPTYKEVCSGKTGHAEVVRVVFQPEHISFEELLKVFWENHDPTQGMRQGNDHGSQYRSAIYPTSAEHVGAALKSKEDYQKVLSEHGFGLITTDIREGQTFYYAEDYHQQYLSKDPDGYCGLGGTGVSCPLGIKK
Sequence of Neurotensin receptor type 1 (P30989 whole entry): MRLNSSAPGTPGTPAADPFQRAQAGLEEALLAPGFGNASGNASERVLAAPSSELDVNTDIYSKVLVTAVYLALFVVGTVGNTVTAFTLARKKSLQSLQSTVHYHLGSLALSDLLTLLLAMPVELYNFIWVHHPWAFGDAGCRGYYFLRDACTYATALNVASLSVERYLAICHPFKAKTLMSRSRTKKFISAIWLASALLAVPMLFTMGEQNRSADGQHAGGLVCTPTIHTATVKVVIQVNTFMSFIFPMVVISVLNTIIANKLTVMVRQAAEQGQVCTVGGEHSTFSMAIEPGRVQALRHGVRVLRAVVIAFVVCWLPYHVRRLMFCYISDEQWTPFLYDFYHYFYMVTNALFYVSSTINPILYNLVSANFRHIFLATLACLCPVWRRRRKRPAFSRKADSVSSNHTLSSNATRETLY
Sequence of Photoreceptor-specific nuclear receptor (Q9Y5X4 whole entry, the tested form may be a part): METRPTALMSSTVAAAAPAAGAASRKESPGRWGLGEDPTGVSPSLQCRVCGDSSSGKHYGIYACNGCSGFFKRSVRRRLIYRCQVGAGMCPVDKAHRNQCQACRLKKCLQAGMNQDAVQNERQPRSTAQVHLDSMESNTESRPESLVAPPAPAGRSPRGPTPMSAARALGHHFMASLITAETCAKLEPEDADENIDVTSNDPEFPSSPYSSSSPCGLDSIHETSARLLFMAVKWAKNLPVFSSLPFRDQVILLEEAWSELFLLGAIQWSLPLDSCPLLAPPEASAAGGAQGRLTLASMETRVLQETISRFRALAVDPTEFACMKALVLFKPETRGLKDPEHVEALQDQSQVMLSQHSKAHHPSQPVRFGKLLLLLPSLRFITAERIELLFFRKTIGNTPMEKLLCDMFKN

CC(=O)Nc1ccc(-c2csc(NC(=O)Nc3ccccc3)n2)cc1
IC50 (H9c2): 38.3 µM (inactive) | EC50 (Melanocortin receptor 4): > 89.2 µM (inactive)

CCn1cc(C(=O)O)c(=O)c2cc(F)c(N3CCN(C(=S)NC(=O)c4cccc(F)c4)CC3)cc21
IC50 [1]: 8.61 µM (active)

CCOC(=O)C(C)Sc1nnc(Cc2cc(O)nc(O)n2)n1-c1ccc(Cl)cc1 (stereo unspecified)
IC50 [2]: > 66 µM (inactive) | IC50 [3]: > 66 µM (inactive)

Cn1ccc2c(-c3ccc(F)nc3)cc3c(c21)C1CCC3C1 (stereo unspecified)
EC50 (Lethal factor): 10.6 µM (active)

Nc1nnc2cc(Br)ccc2n1
IC50 [2]: > 66 µM (inactive) | IC50 [3]: 35.7 µM (inactive)

C#CCOCCOCCOCCNc1nc(N2CCN(C(=O)CCCCCCCCCCNC(=O)[C@H]([C@@H](C)CC)n3cc(CCCCCN)nn3)CC2)nc(N2CCN(C(=O)CCCCCCCCCCNC(=O)[C@H](CO)n3cc(CCCCCN)nn3)CC2)n1
IC50 (Bcl-2-related protein A1): > 20 µM (inactive) | IC50 [4]: 4.22 µM (active) | IC50 [5]: 2.64 µM (active) | EC50 (Insulin-degrading enzyme [6]): 9.67 µM (active) | IC50 [7]: 25 µM (active) | EC50 (Insulin-degrading enzyme [8]): > 6.08 µM (active) | IC50 (HEK293 [9]): 9.37 µM (active) | EC50 (HEK293 [10]): > 56 µM (inactive)

CCCOc1ccc(C(=O)NC(=S)N2CCN(c3ncc4c(=O)c(C(=O)O)cn(CC)c4n3)CC2)cc1
IC50 [1]: 9.82 µM (active)

COc1cc(OC)c(OC)cc1/C=N/NC(=O)c1ccc(=O)n(C)c1
IC50 [11]: 102 µM (inactive)

COc1ccc(Cn2c(SCc3ccc(C)cc3)nc3cc(OC)c(OC)cc3c2=N)cc1Cl
EC50 [12]: > 120 µM (not active) | EC50 [13]: 2.52 µM (active) | EC50 [14]: > 120 µM (not active) | EC50 [15]: > 120 µM (not active) | EC50 (Streptokinase A): 5.92 µM (active) | EC50 [16]: 3.54 µM (active) | EC50 [17]: 3.32 µM (active) | EC50 (Streptococcus): 8.22 µM (active) | EC50 [18]: 5.35 µM (active) | IC50 [19]: > 80 µM (inactive) | EC50 (Insulin-degrading enzyme [6]): > 54.7 µM (inactive) | EC50 (Insulin-degrading enzyme [8]): 15.5 µM (inactive) | AC50 (INS1): 3.85 µM (active) | IC50 (HEK293 [9]): 15.9 µM (inactive) | EC50 (HEK293 [10]): > 54.7 µM (inactive)

CCc1cccc2sc(N3CCN(C(=O)c4ccc([N+](=O)[O-])o4)CC3)nc12
EC50 [13]: 5.99 µM (active) | EC50 (Streptokinase A): 2.38 µM (active) | EC50 [20]: 0.307 µM (active) | EC50 [21]: 5.4 µM (active) | EC50 (Streptococcus): 12.1 µM (active) | IC50 [22]: 4.71 µM (active) | IC50 (Fatty acid synthase [23]): 13.3 µM (active) | IC50 (Fatty acid synthase [24]): 12.9 µM (active)
